In BindingDB's records for patent US20250304537 (Repare Therapeutics, 2025) one finds IC50 data, which are given here for 19 molecules.

In this test the target is T1, Membrane-associated tyrosine- and threonine-specific cdc2-inhibitory kinase (Homo sapiens, UniProt Q99640).
T1 sequence (Q99640 whole entry): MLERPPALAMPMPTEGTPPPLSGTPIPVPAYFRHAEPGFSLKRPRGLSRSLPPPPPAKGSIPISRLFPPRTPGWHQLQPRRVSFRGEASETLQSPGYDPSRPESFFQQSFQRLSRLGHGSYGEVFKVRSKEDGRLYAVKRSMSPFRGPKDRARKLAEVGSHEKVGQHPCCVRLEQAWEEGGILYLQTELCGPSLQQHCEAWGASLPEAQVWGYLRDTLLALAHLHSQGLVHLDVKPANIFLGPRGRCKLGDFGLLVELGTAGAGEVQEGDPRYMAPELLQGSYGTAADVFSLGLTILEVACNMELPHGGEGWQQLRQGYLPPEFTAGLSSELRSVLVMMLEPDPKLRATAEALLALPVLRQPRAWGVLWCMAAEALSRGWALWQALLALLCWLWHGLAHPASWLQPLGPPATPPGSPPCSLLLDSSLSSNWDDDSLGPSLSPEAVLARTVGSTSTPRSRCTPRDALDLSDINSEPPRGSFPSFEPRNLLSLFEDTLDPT
As to the kind of experiment: Enzymatic Assay. Here is the method:
Detection of Myt1 kinase activity utilized a recombinant human Myt1 kinase assay measuring the hydrolysis of ATP using a commercially available ADP-Glo Assay (ADP-Glo™ Kinase Assay from Promega, 10 000 assays, #V9102). Briefly, 5 μL recombinant human Myt1 (full length PKMYT1 recombinant human protein expressed in insect cells from Thermo Fisher #A33387; ˜80% purity) was prepared in reaction buffer (70 mM HEPES, 3 mM MgCl2, 3 mM MnCl2, 50 μg/ml PEG 20000, 3 μM Na-orthovanadate, 1.2 mM DTT) and added to 384 well white polystyrene, flat bottom well, non-treated, microplate (Corning #3572). After this, 5 μL of compounds (diluted in reaction buffer to 0.5% DMSO) was added to the microplate and the plate was spun briefly and incubated at 22° C. for 15 minutes. Ultra-Pure Adenosine Triphosphate (ATP) solution (ADP-Glo kit from Promega) was diluted in reaction buffer and 5 μL was added to the microplate, spun down briefly and incubated for 60 minutes at 30° C. The final Myt1 enzyme concentration was 18 nM and the final ATP concentration was 10 μM. After the 60-minute incubation, 15 μL of ADP-Glo reagent was added and the plate was spun briefly and sealed and incubated in the dark for 40 minutes at 22° C. Following this, 30 μL of kinase detection reagent was added per well and the plate was spun briefly, sealed and incubated for 45-60 minutes at 22° C. in the dark. Luminescence was read using the Envision (250 ms integration). The IC50 and the % max inhibition were calculated for each inhibitor compound tested.

Turning to `Cc1ccc(O)c(C)c1-c1nc(-c2ccnnc2)cc(C(N)=O)c1N` [US20250304537, Compound 77], the IC50 is 27 nM. The figure for `Cc1ccc2[nH]ncc2c1-c1cc(-c2cccc(-c3ccccn3)n2)nc(C(N)=O)c1N` [US20250304537, Compound 236] is 46 nM. Consider `COc1cc(-c2nc(C(N)=O)c(N)c(-c3c(C)ccc4[nH]ncc34)n2)ccn1` [US20250304537, Compound 135], for which 22 nM corresponded to half-maximal inhibition (IC50). `Cc1ccc2[nH]ncc2c1-c1nc(-c2cccc(N3CCN(C)CC3)c2)nc(C(N)=O)c1N` [US20250304537, Compound 132] showed an IC50 of 37 nM. `CCc1ccc2[nH]ncc2c1-c1nc(-c2cccnc2)nc(C(N)=O)c1N` [US20250304537, Compound 222] yielded an IC50 of over 2000 nM.

Turning to `Cc1ccc2[nH]ncc2c1-c1nc(-c2ccc(N3CCN(C)CC3)cc2)nc(C(N)=O)c1N` [US20250304537, Compound 134], the half-maximal inhibitory concentration (IC50) turned out to be 142 nM. `NC(=O)c1nc(-c2ccnnc2)cc(-c2cccc3[nH]ncc23)c1N` [US20250304537, Compound 69]: the IC50 stood at 131 nM. Molecule `Cc1ccc2[nH]ncc2c1-c1cc(-c2ccnc(OCc3ccco3)n2)nc(C(N)=O)c1N` [US20250304537, Compound 213] registered an IC50 of 7 nM. Molecule `Cc1ccc2[nH]ncc2c1-c1nc(-c2ccc3[nH]ncc3c2)nc(C(N)=O)c1N` [US20250304537, Compound 130] yielded an IC50 of 66 nM.

`Cc1ccc2[nH]ncc2c1-c1nc(-c2ccc(C#N)cc2)nc(C(N)=O)c1N` [US20250304537, Compound 133] had an IC50 of 39 nM. In turn, `CC(=O)N1CCN(c2nccc(-c3cc(-c4c(C)ccc5[nH]ncc45)c(N)c(C(N)=O)n3)n2)CC1` [US20250304537, Compound 215] gave an IC50 of 7 nM.

With `Cc1cc(-c2nc(C(N)=O)c(N)c(-c3c(C)ccc4[nH]ncc34)n2)ccn1` [US20250304537, Compound 136], the 50% inhibitory concentration (IC50) worked out at 25 nM. To `Cc1ccc2[nH]ncc2c1-c1nc(-c2cccnc2O)nc(C(N)=O)c1N` [US20250304537, Compound 598] belongs 27 nM; to `Cc1ccc2[nH]ncc2c1-c1nc(-c2ccnnc2)cc(C(N)=O)c1N` [US20250304537, Compound 120], 329 nM. `Cc1ccc2[nH]ncc2c1-c1cc(-c2ccnc(OCC(F)(F)F)n2)nc(C(N)=O)c1N` [US20250304537, Compound 165] came in with an IC50 of 586 nM. The figure for `Cc1ccc2[nH]ncc2c1-c1cc(-c2ccnc(N[C@H]3CCOC[C@@H]3O)n2)nc(C(N)=O)c1N` [US20250304537, Compound 368] is 15 nM; for `Cc1ccc2[nH]ncc2c1-c1cc(-c2ccnc(OCC3(C#N)CC3)n2)nc(C(N)=O)c1N` [US20250304537, Compound 324] it is 10 nM; for `Cc1ccc2[nH]ncc2c1-c1cc(-c2ccnc(OCc3nccn3C)n2)nc(C(N)=O)c1N` [US20250304537, Compound 301] it is 4 nM. With `Cc1ccc(O)cc1-c1nc(C2CCOCC2)nc(C(N)=O)c1N` [US20250304537, Compound 44], 3180 nM corresponded to half-maximal inhibition (IC50).
